According to patent US12139458B2, “(2,5-dioxopyrrolidin-1-yl)(phenyl)-acetamide derivatives and their use in the treatment of neurological diseases” (UNIWERSYTET JAGIELLONSKI, priority 2019, dated 2024):

Columns and labels:
[1] = system: Ca2+ channel type L (diltiazem binding site); test: Ca2+ channel type L (diltiazem binding site) affinity study; conditions: 100 μM, rat cerebral cortex
Description: (§1) A unique feature of the compound 6 representing compounds of formula (II) according to the invention is the inhibition of calcium currents by blocking the transient receptor potential vanilloid type 1 (TRPV1). This effect has not been disclosed for known AEDs. TRPV1 receptor antagonism may determine the antinociceptive effect of the compounds disclosed herein. The role of the TRPV1 receptor in conduction of pain stimuli has been well documented in specialist literature (Szallasi, A.; Cortright, D. N.; Blum, C. A.; Eid, S. R. Nat. Rev. Drug. Discov. 2007, 6, 357-372). The compounds according to the invention are characterized by a complex mechanism of action, which is not described for known anticonvulsants. It should be emphasized, however, that further in vitro studies may reveal further molecular targets responsible for the pharmacological action of substances being the subject of current patent claim. The results of binding studies (sodium channel, calcium channel) and functional tests (TRPV1 receptor) for compound 6 are shown in Table 3.

P-glycoprotein (Pgp) = molecular target: T1, P-glycoprotein (Pgp) (Homo sapiens, UniProt P08183); test: Pgp-Glo Assay System (Pgp activity); type: in vitro ADME
T1 construct: purchased Promega (Madison, WI, USA)
Description: Impact on Pgp activity. P-glycoprotein (Pgp) is an integral plasma membrane protein that, as an ATP-dependent […] pump, actively removes xenobiotics and can cause drug interactions. Pgp plays an important role in the absorption of drugs in the gastrointestinal tract and also through the blood-brain barrier. A commercial bioluminescent Pgp-Glo™ Assay System test (Promega, Madison, WI, USA) was used to study the effect of compound 6 on Pgp activity. The operation of the test is based on measuring changes in the level of ATP consumed by membranes containing the recombinant Pgp protein in the presence of test compounds. The results were presented as % of baseline activity and compared to reference compounds: selective Pgp inhibitor Na3VO4 and verapamil stimulator.
Impact on Pgp activity—methodology. The tests were performed according to the protocol of the bioluminescent Pgp-Glo™ Assay System test provided by the Promega company (Madison, WI, USA). […] Bioluminescence was measured with a PerkinElmer multispecific EnSpire plate reader (Waltham, MA USA). […] The calculated difference between the luminescence values of the inhibitor-treated sample and the control sample was taken as 100% of the Pgp base activity and treated as a negative control in the test. […] Statistical significance was calculated by one-way ANOVA variance analysis and the Bonferroni method using GraphPad Prism 5. […]

Na+ channel (site 2) = Na+ channel (site 2) affinity study; type: binding; conditions: rat cerebral cortex
Description: as §1

[2] = system: male Swiss albino mice (CD-1); test: Subcutaneous pentylenetetrazole seizure test (scPTZ); type: in vivo
Summary of the method: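 Compounds given i.p. in 1% aqueous Tween 30 min before s.c. PTZ at 100 mg/kg. Mice observed 30 min for clonic seizures (whole-body clonus ≥3 s with loss of righting reflex); absence counted as protection. ED50 from 3-4 groups of 6 mice; screening in groups of 4.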

T1 sequence (P08183 whole entry): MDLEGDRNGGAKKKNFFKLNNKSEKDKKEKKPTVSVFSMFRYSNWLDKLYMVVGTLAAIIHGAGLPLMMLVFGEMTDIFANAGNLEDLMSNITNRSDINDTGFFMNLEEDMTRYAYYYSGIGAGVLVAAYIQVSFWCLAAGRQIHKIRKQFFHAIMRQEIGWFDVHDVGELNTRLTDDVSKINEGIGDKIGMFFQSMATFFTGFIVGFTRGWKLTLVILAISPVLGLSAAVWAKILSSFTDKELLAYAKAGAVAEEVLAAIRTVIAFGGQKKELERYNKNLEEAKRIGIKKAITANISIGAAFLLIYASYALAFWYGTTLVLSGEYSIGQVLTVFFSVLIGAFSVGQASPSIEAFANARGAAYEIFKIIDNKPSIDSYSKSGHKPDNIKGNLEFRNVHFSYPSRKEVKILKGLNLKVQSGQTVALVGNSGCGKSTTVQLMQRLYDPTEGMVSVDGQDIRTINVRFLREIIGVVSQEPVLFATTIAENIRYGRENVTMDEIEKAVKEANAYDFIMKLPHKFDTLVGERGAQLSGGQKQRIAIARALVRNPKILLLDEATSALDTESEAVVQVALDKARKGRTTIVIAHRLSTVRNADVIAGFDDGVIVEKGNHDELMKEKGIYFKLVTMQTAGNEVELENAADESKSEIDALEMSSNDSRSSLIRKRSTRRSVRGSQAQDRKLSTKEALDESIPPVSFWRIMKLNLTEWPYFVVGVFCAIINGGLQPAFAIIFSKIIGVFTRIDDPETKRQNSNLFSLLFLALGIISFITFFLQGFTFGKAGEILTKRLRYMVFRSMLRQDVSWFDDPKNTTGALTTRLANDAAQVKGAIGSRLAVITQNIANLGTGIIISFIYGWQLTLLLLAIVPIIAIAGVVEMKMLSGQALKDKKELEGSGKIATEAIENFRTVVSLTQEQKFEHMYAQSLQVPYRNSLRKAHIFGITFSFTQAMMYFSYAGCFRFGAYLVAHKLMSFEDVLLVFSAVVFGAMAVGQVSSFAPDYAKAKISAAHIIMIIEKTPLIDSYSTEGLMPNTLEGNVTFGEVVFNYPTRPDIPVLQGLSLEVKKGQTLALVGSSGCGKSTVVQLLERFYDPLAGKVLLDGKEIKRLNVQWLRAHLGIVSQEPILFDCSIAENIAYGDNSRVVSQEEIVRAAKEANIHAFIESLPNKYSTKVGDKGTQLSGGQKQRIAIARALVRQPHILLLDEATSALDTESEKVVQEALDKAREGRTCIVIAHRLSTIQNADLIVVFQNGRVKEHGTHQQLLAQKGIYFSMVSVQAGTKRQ

**Q.** `O=C(C(c1ccccc1)N1C(=O)CCC1=O)N1CCN(c2cccc(C(F)(F)F)c2)CC1` (racemic) [Compound 6, 1-(2-Oxo-1-phenyl-2-(4-(3-(trifluoromethyl)phenyl)piperazin-1-yl)ethyl)pyrrolidine-2,5-dione] was tested. Which “Inhibition of specific control binding, Ca2+ channel type L (diltiazem binding site)” value [1] did it give?
**A.** 69.6 (100) %

**Q.** And the “effect on Pgp activity” value (P-glycoprotein (Pgp); 50 μM)?
**A.** no effect on Pgp activity

**Q.** What about the “Pgp activity, % of baseline activity” value (P-glycoprotein (Pgp); 100 μM, inhibitory effect, p<0.01) of the same compound?
**A.** 38%

**Q.** What about the “Inhibition of specific control binding, Na+ channel (site 2)” value (Na+ channel (site 2); 10 μM) of the same compound?
**A.** 33.4 (10) %

**Q.** And the “Inhibition of specific control binding, Na+ channel (site 2)” value (Na+ channel (site 2); 100 μM)?
**A.** 82.5 (100) %

**Q.** What about the ED50 ([2]; Mus musculus, ip, 0.5 h, mice) of the same compound?
**A.** 59.4 mg/kg

**Q.** And the responders at 100 mg/kg ([2]; Mus musculus, ip, screening, 100 mg/kg i.p., 0.5 h, mice, read-out: scPTZ: number of mice protected/number of mice tested (converted))?
**A.** 100%

**Q.** What about the “mice protected in the scPTZ test” value ([2]; screening, 100 mg/kg, time point 0.5 h) of the same compound?
**A.** 100%
